Source: patent US20240294531A1, “COVALENT HETEROCYCLES AND USES THEREOF” (Kumquat Biosciences Inc., priority 2022, published 2024)

Columns and labels:
[1] = Intrinsic reactivity assay; format: physicochemical; details: pH 7.4, 37° C., suitably protected Cys-OMe
Text: Understanding of the intrinsic reactivity of electrophilic warheads with nucleophilic molecules is an important parameter influencing the stability of a compound in biological matrices. Lower intrinsic reactivity also mitigates the risk of covalent off-target reactivity. A common target residue for covalent drugs is cysteine, an amino acid containing a nucleophilic thiol side chain. The assay described here measures the rate of a compound forming a covalent bond with Boc-protected cysteine methyl ester or cysteine methyl ester that can be used as a surrogate for cysteines found on proteins.
Test compounds are prepared as 10 mM stock solutions in DMSO (Fisher cat #BP231-100). Compounds with molecular weight differing more than 3 Dalton are pooled and diluted to 5 μM in 100 mM potassium phosphate buffer, pH 7.4, containing 50 mM Boc-protected cysteine methyl ester (Combi-Blocks cat #QH-3424). Compounds incubated without Boc-protected cysteine methyl ester serve as controls. The reactions are incubated at 37° C., and reaction aliquots at different time intervals are sampled from the reaction and quenched with formic acid for subsequent LC-MS/MS analysis.
The LC-MS/MS analysis is done using a LC-40D×3 pump and SIL-40C×3 autosampler (Shimadzu) coupled to a QTRAP 6500+ (Sciex). Compounds are separated on a XBridge Premier BEH column (Waters). The sample run time is about 4 minutes per injection. The normalized peak area for each compound is extracted from the mass spectrometry raw files, and the data for each compound are plotted against time in Prism version 9.4 (GraphPad). Nonlinear regression using one-phase decay is used to estimate the rate of covalent bond formation with Boc-protected cysteine methyl ester or cysteine methyl ester and parent compound half-life (t½).

[2] = target: T1, BTK wildtype protein (Homo sapiens (Human), UniProt Q06187); assay: Kinact/KI determination for BTK protein inhibitors (Kobs); format: binding
Method: Test compounds were prepared as 10 mM stock solutions in DMSO (Fisher cat #BP231-100). Human recombinant BTK wildtype protein 393-659 or BTK C481S protein 393-659 was produced in house or purchased from Saromics Biostructures AB (Lund, Sweden). BTK protein was diluted to 1 μM in buffer (20 mM Hepes, pH 7.5, 150 mM NaCl, 1 mM MgCl2, 1 mM DTT). For testing BTK modification, compounds were diluted to 50× final test concentration in DMSO in 96-well storage plates. 1 μL of the diluted 50× compounds were added to appropriate wells in the PCR plate (Fisher cat #AB-0800). Increasing concentrations of compounds were added to separate wells, resulting in final assay compound concentrations of 3 μM, 10 μM, 30 μM and 100 μM. 49 μL of the stock protein solution was added to each well of the 96-well PCR plate. Reactions were mixed carefully. The plate was sealed well with aluminum plate seal and stored in a drawer at room temperature. After different incubation times, the reactions were quenched by adding 5 μL of 2% formic acid (Fisher cat #A117-50) in MilliQ H2O to each well followed by mixing with a pipette. The plate was then resealed with aluminum seal and stored until mass spectrometry analysis.
The extent of covalent modification of BTK proteins was determined by liquid chromatography electrospray mass spectrometry analysis of the intact proteins using a Thermo Q-Exactive Plus mass spectrometer. 20 μL of sample was injected onto a bioZen 3.6 μm Intact C4 column (Phenomenex cat #00B-4767-AN) placed in a column oven set to 40° C. and separated using a LC gradient from 20% to 60% solvent B. Solvent A was 0.1% formic acid and solvent B was 0.1% formic acid in acetonitrile. HESI source settings were set to 40, 5 and 1 for the sheath, auxiliary and sweep gas flow, respectively. The spray voltage was 4 kV, and the capillary temperature was 320° C. S-lens RF level was 50 and auxiliary gas heater temperature was set to 200° C. The mass spectrometry was acquired using a scan range from 650 to 1750 m/z using positive polarity at a mass resolution of 70,000, AGC target of 1e6 ions and maximum injection time of 250 ms. The recorded protein mass spectrum was deconvoluted from the raw data file using Protein Deconvolution v4.0 (Thermo). The protein mass, adduct masses and their corresponding peak intensities were exported to Excel (Microsoft). The peak intensities for the unmodified and modified protein were used to calculate the percent covalent modification of the BTK protein based on the following equation: % BTK protein modification=((BTK−compound)/(BTK)+(BTK−Compound))*100.
The Kinact/KI is a rate constant describing the efficiency of covalent bond formation resulting from the potency (KI) of the first reversible binding event and the maximum potential rate (Kinact) of inactivation. The percent […] protein modification was plotted as a function of time using Prism version 9.4.1 (GraphPad), and the observed rate of modification (Kobs), a first-order rate constant with units of inverse time, was estimated using nonlinear regression at each compound concentration. […] If Kobs is increasing with compound concentration, KI is higher than 3 μM. Kinact/KI can be estimated by plotting Kobs values against each compound concentration used in separate reactions. The Kobs values are fitted to determine Kinact and KI using the following equation, Kobs=(Kinact×[compound conc])/(KI+[compound conc]).
Target sequence in this assay (Q06187 393-659): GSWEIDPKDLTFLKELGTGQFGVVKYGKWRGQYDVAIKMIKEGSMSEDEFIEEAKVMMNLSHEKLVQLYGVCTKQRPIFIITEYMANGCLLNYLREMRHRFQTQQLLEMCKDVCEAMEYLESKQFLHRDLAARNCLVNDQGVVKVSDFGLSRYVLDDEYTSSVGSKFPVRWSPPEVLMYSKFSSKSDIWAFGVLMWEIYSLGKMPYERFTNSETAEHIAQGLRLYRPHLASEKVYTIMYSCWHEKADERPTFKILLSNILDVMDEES

[3] = target: T1, BTK wildtype protein; assay: BTK wildtype HTRF displacement assay; format: binding; details: 1-hour incubation; read-out: BTK (wt) IC50
Method in brief: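 Full-length N-terminal GST-tagged BTK incubated 1 h at room temperature with compound (6 doses, four-fold dilutions from 5 μM top) plus kinase tracer 239 and anti-GST-Tb antibody. Tracer displacement read as TR-FRET 665/620 ratio, background-subtracted using no-protein control. IC50 from four-parameter fit constrained 0–100% inhibition.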
Target sequence in this assay (Q06187 2-659): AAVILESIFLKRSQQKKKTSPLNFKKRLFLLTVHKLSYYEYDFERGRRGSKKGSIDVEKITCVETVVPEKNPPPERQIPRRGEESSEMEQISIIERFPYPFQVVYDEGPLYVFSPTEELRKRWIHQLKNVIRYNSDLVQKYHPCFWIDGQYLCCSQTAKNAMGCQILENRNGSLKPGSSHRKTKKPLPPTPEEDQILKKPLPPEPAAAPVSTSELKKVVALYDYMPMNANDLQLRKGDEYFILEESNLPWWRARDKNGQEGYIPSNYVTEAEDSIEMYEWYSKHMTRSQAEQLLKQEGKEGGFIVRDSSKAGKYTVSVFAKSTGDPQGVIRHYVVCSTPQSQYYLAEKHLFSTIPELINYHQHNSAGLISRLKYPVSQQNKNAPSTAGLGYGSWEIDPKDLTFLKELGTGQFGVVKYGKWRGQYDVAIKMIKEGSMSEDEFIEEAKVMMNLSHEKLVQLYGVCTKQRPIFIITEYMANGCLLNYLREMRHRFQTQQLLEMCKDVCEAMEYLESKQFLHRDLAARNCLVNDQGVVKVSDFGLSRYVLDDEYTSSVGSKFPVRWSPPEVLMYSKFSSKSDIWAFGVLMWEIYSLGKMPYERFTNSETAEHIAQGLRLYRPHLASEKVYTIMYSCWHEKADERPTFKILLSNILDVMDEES

[4] = target: BTK C481S protein (Homo sapiens (Human), UniProt Q06187, C481S); assay: BTK C481S HTRF displacement assay; format: binding; details: 1-hour incubation
Sequence of BTK C481S protein (Q06187 2-659 C481S): as the sequence (Q06187 2-659) above, with C480S counted along it
Method in brief: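 N-terminal GST-tagged BTK C481S (2-659) incubated 1 hour at room temperature with compound (6 doses, four-fold from 5 μM), 50 nM kinase tracer 239 and anti-GST-Tb antibody. TR-FRET 665/620 ratio, background-subtracted; IC50 from constrained four-parameter fit. KI=IC50/(1+[Tracer]/Kd), tracer Kd 54 nM.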

SMILES | K (min^−1), intrinsic rate constant [1] | BTK (wt) Kobs [2] | IC50 [3] | IC50 [4]
C=CC(=O)N(CC)CC | 0.0012 min⁻¹ |  |  | 
COc1ccc(F)cc1C(=O)NCc1ccc(-c2nn(C(C)C3CCCCN3C(=O)n3cncn3)c(N)c2C(N)=O)cc1 (centres unmarked) [Compound 249, 1-(1-(1-(1H-1,2,4-triazole-1-carbonyl)piperidin-2-yl)ethyl)-5-amino-3-(4-((5-fluoro-2-methoxybenzamido)methyl)phenyl)-1H-pyrazole-4-carboxamide] |  | 248, 249, 250, 253, 254, 256, 259, 260, 261, 264, 265, M^−1 · s^−1 | ≤ 1 µM | ≤ 1 µM
COc1ccc(F)cc1C(=O)NCc1ccc(-c2nn(C3CCCCN(C(=O)n4cncn4)C3)c(N)c2C(N)=O)cc1 (centres unmarked) [Compound 256, 1-(1-(1H-1,2,4-triazole-1-carbonyl)azepan-3-yl)-5-amino-3-(4-((5-fluoro-2-methoxybenzamido)methyl)phenyl)-1H-pyrazole-4-carboxamide] |  | 248, 249, 250, 253, 254, 256, 259, 260, 261, 264, 265, M^−1 · s^−1 | ≤ 1 µM | ≤ 1 µM
CN(C(=O)n1cncn1)C1CCCC(C2CCNc3c(C(N)=O)c(-c4ccc(Oc5ccccc5)cc4)nn32)C1 (centres unmarked) [Compound 134, 7-(3-(N-methyl-1H-1,2,4-triazole-1-carboxamido)cyclohexyl)-2-(4-phenoxyphenyl)-4,5,6,7-tetrahydropyrazolo[1,5-a]pyrimidine-3-carboxamide] |  | 132, 134, 136, 137, 138, 140, 150, 152, 153, 154, 155, M^−1 · s^−1 | ≤ 1 µM | ≤ 1 µM
COc1ccc(F)cc1C(=O)NCc1ccc(-c2nn(C[C@@H]3C[C@@H](C)CCN3C(=O)n3cnnc3)c(N)c2C(N)=O)cc1 [Compound 264, 5-amino-3-(4-((5-fluoro-2-methoxybenzamido)methyl)phenyl)-1-(((2S,4S)-4-methyl-1-(4H-1,2,4-triazole-4-carbonyl)piperidin-2-yl)methyl)-1H-pyrazole-4-carboxamide] |  | 248, 249, 250, 253, 254, 256, 259, 260, 261, 264, 265, M^−1 · s^−1 | ≤ 1 µM | ≤ 1 µM
COCC(CN(C)C(=O)n1cncn1)n1nc(-c2ccc(CNC(=O)c3cc(F)ccc3OC)cc2)c2c(N)ncnc21 (centres unmarked) [Compound 261, N-(2-(4-amino-3-(4-((5-fluoro-2-methoxybenzamido)methyl)phenyl)-1H-pyrazolo[3,4-d]pyrimidin-1-yl)-3-methoxypropyl)-N-methyl-1H-1,2,4-triazole-1-carboxamide] |  | 248, 249, 250, 253, 254, 256, 259, 260, 261, 264, 265, M^−1 · s^−1 | > 1 µM | > 1 µM
COc1ccc(F)cc1C(=O)NCc1ccc(-c2nn(C[C@H](C(C)C)N(C)C(=O)n3cncn3)c3ncnc(N)c23)cc1 [Compound 259, (S)-N-(1-(4-amino-3-(4-((5-fluoro-2-methoxybenzamido)methyl)phenyl)-1H-pyrazolo[3,4-d]pyrimidin-1-yl)-3-methylbutan-2-yl)-N-methyl-1H-1,2,4-triazole-1-carboxamide] |  | 248, 249, 250, 253, 254, 256, 259, 260, 261, 264, 265, M^−1 · s^−1 | > 1 µM | > 1 µM
COc1ccc(F)cc1C(=O)NCc1ccc(-c2nn(C[C@@H]3CCC[C@H]3CN(C)C(=O)n3cncn3)c3ncnc(N)c23)cc1 [Compound 153, N-(((1R,2R)-2-((4-amino-3-(4-((5-fluoro-2-methoxybenzamido)methyl)phenyl)-1H-pyrazolo[3,4-d]pyrimidin-1-yl)methyl)cyclopentyl)methyl)-N-methyl-1H-1,2,4-triazole-1-carboxamide] |  | 132, 134, 136, 137, 138, 140, 150, 152, 153, 154, 155, M^−1 · s^−1 | ≤ 1 µM | ≤ 1 µM
C=CC(=O)N(CC)C1CC1 | 0.0159 min⁻¹ |  |  | 
CN(CCC1CNc2c(C(N)=O)c(-c3ccc(Oc4ccccc4)cc3)nn2C1)C(=O)n1cncn1 (centres unmarked) [Compound 265, 6-(2-(N-methyl-1H-1,2,4-triazole-1-carboxamido)ethyl)-2-(4-phenoxy-phenyl)-4,5,6,7-tetrahydro-pyrazolo[1,5-a]pyrimidine-3-carboxamide] |  | 248, 249, 250, 253, 254, 256, 259, 260, 261, 264, 265, M^−1 · s^−1 | > 1 µM | ≤ 1 µM
NC(=O)c1c(-c2ccc(Oc3ccccc3)cc2)nn2c1NCCC2C1CCN(C(=O)n2cncn2)CC1 (centres unmarked) [Compound 136, 7-(1-(1H-1,2,4-triazole-1-carbonyl)piperidin-4-yl)-2-(4-phenoxyphenyl)-4,5,6,7-tetrahydropyrazolo[1,5-a] pyrimidine-3-carboxamide] |  | 132, 134, 136, 137, 138, 140, 150, 152, 153, 154, 155, M^−1 · s^−1 | ≤ 1 µM | ≤ 1 µM
COc1ccc(F)cc1C(=O)NCc1ccc(-c2nn(C(C)C(C)N(C)C(=O)n3cnnc3)c(N)c2C(N)=O)cc1 (centres unmarked) [Compound 155, N-(3-(5-amino-4-carbamoyl-3-(4-((5-fluoro-2-methoxybenzamido)methyl)phenyl)-1H-pyrazol-1-yl)butan-2-yl)-N-methyl-4H-1,2,4-triazole-4-carboxamide] |  | 132, 134, 136, 137, 138, 140, 150, 152, 153, 154, 155, M^−1 · s^−1 | > 1 µM | ≤ 1 µM
C=CC(=O)N1CCCCC1C (centres unmarked) | 0.0029 min⁻¹ |  |  | 
CCN(C(=O)n1cncn1)C1CC1 | <0.0005 min⁻¹ |  |  | 
CC1CCCCN1C(=O)n1cncn1 (centres unmarked) | <0.0005 min⁻¹ |  |  | 
COc1ccc(F)cc1C(=O)NCc1ccc(-c2nn(C(CCCN(C)C(=O)n3cncn3)N(C)C)c3ncnc(N)c23)cc1 (centres unmarked) [Compound 254, N-(4-(4-amino-3-(4-((5-fluoro-2-methoxybenzamido)methyl)phenyl)-1H-pyrazolo[3,4-d]pyrimidin-1-yl)-4-(dimethyl-amino)butyl)-N-methyl-1H-1,2,4-triazole-1-carboxamide] |  | 248, 249, 250, 253, 254, 256, 259, 260, 261, 264, 265, M^−1 · s^−1 | > 1 µM | > 1 µM
NC(=O)c1c(-c2ccc(Oc3ccccc3)cc2)nn2c1NCCC2C1CCN1C(=O)n1cncn1 (centres unmarked) [Compound 137, 7-(1-(1H-1,2,4-triazole-1-carbonyl)azetidin-2-yl)-2-(4-phenoxyphenyl)-4,5,6,7-tetrahydropyrazolo[1,5-a] pyrimidine-3-carboxamide] |  | 132, 134, 136, 137, 138, 140, 150, 152, 153, 154, 155, M^−1 · s^−1 | > 1 µM | ≤ 1 µM
